Data on one compound can be found in patent publication US12251449B2, “Synthetic multidomain peptide biomaterials that inhibit inducible nitric oxide synthase” (William Marsh Rice University, priority 2019, dated 2025).

The subject of the test is B16-F0 melanoma tumors. As to the kind of experiment: Tumor growth in the B16-F0 melanoma model. Type of test: in vivo, mice. The settings on record: monotherapy, single intratumoral injection. On the procedure: Evaluation of in vivo VEGF reduction using murine B16-F0 melanoma tumor model. C57BL/6J male mice were purchased from The Jackson Laboratory. Tumor inoculation was performed when mice reached 10-14 weeks of age. All experiments were performed with approval of IACUC at Baylor College of Medicine (BCM) and followed established protocols. B16-F0 melanoma cell line was purchased from American Type Culture Collection (ATCC) and maintained according to manufacturer instructions (DMEM high-glucose with 10% fetal bovine serum and 1% penicillin/streptomycin). C57BL/6J mice were injected subcutaneously (s.c.) with 3×10^5 B16-F0 cells in a single flank. Once tumors became palpable (day 7 post-inoculation) mice were injected intratumorally (i.t.) with either vehicle buffer control Hank's Balanced Salt Solution (HBSS), free L-NIL dissolved in HBSS at 20 mM, K2-MDP hydrogel at 1 wt. % (5.6 mM peptide), or L-NIL-MDP hydrogel at 1 wt. % (5.2 mM peptide, or approximately 20 mM L-NIL functional groups). All injections were done using 100 μL total injection volume.

Structures are written as SMILES. *1 amine or outer side, *2 acyl side, *3 side chain or, on linkers, in order; H or OH if unused. Where a SMILES comes first, the peptide text is derived from it. [ ]: non-standard residue; d: D form. X1 = CC(=N)NCCCC[C@H](N[*:1])C(=O)[*:2]

Take `CC(=N)NCCCC[C@H](NC(=O)[C@H](CCCCNC(C)=N)NC(=O)[C@H](CC(C)C)NC(=O)[C@H](CO)NC(=O)[C@H](CC(C)C)NC(=O)[C@H](CO)NC(=O)[C@H](CC(C)C)NC(=O)[C@H](CO)NC(=O)[C@H](CC(C)C)NC(=O)[C@H](CO)NC(=O)[C@H](CC(C)C)NC(=O)[C@H](CO)NC(=O)[C@H](CC(C)C)NC(=O)[C@H](CO)NC(=O)[C@H](CCCCNC(C)=N)NC(=O)[C@H](CCCCNC(C)=N)NC(C)=O)C(N)=O` [L-NIL-MDP] (Ac-[X1][X1]SLSLSLSLSLSL[X1][X1]-NH2): the “tumor growth reduction (in words)” value was “no favorable effect on tumor growth reduction”.
